Experimental data reported in paper PMC13168289, “Potent acridone antimalarial against all three life stages of Plasmodium” (Nature Communications, 2026).
Where two headings read alike, the source gives them in different places.

What was measured:
[1] = test system: P. falciparum K13 mutant parasites SP045 and SP060; experiment: Growth, Resistance, and Recovery Assay (GRRA), ring-stage survival dose-response; assay type: cell-based, Plasmodium falciparum; settings: Plasmodium falciparum
Procedure: These isolates carry the validated R561H Kelch 13 propeller domain mutation associated with delayed parasite clearance in East Africa[24],[25]. Using the 6-hour GRRA[23], all strains were thawed, frozen, and cultured under standard conditions at 5% hematocrit. Samples parasitemia was measured by flow cytometry. Parasite cultures that were predominantly segmented schizonts were synchronized using a single Percoll layer method. Cultures that met quality control requirements of ≥70% early ring stage and ≥1% parasitemia were adjusted to 0.25% parasitemia at 2% hematocrit. […] The GRRA50 implements 11 RSA experiments to generate a dose-response curve for each parasite line per drug. Master mixes of samples were aliquoted into 2 technical replicates of 275 µL each in 96 well plates (2 treated each condition, 2 untreated). At 6 h post-exposure, 200 µL of media was removed from the wells and replaced with 200 µL of incomplete media and spun for 3 min at 800 g to rinse. The rinse was repeated a total of 3 times, after which 200 µL complete media was added back to the wells. At 120 h post-treatment, thin microscopy smears were made using 2 µL of culture for each sample and 20 µL of culture was transferred to PCR strips and stored at −80 °C until qPCR quantification. A standard curve of known parasitemia was generated using the NF54 parasite line for each qPCR quantification for conversion from Cycle threshold (Ct) to parasitemia and comparison between qPCR experiments. Replicate viability was calculated according to the GRRA method. Each individual reaction mixture and cycling conditions were set to previously used methods. Ct was calculated using AB1 SDA 2.4.1. software. […] We find that commonly reported thresholds (cutoffs) for resistance (e.g., 1% survival in traditional RSA) may not be broadly applicable, especially with lower thresholds subject to potential artifacts due to markedly low survival rates of ART-sensitive and low-level ART-resistant parasites. Regular RSA relies on a single drug concentration, 700 nM. To gain a more fine-scale quantification to compare drug susceptibilities with relevance to therapeutic success and failure, we developed the GRRA50 to generate full dose-response curves for precise quantitative comparisons.

[2] = test system: P. falciparum mutant T111 lines; experiment: drug susceptibility of T111-selected cyt b mutant lines; assay type: cell-based, Plasmodium falciparum
Procedure: DNA extractions were performed on clonal parasites using the QIAamp DNA extraction kit (QIAGEN Inc, Valencia, CA) or ZYMO Quick gDNA Miniprep kit (Zymo Research Corp, Irvine, CA). For sequencing of the open reading frame of pfcytb, PCR was performed with genomic DNA using forward and reverse flanking primers for cyt b primer 1: 5’-[…]-3’ and primer 2: 5’-[…]-3’. PCR products were subjected to enzymatic cleanup with ExoSAP-IT (Thermo Fisher Scientific) and sent for Sanger sequencing (Eurofins Genomics, Louisville, KY) with PCR primer 2 paired with an internal forward primer: 5’-[…]-3’ and an internal reverse primer: 5’-[…]-3’. Sequences were assembled using 4Peaks software (Nucleobytes, Amsterdam, Netherlands) and aligned with Clustal Omega (EMBL-EBI). For sequencing of the open reading frame of pfdhodh, PCR was performed with genomic DNA using forward primer: 5’-[…]-3’ and reverse primer: 5’-[…]-3’. PCR products were prepared for Sanger sequencing and analyzed as described above, except using two forward primers: 5’-[…]-3’ and 5’-[…]-3’ and with two reverse primers: 5’-[…]-3’ and 5’-[…]-3’.
(§1) Drug susceptibility assays against P. falciparum strains were performed using a SYBR Green based assay. D6 and Dd2 were obtained from MR4. Tm90-C2B was obtained from WRAIR. Dd2-D1^I22L and ELQ-300 were obtained from VAPORHCS. D10yDHODH was obtained as a courtesy from Dr. Akhil Vaidya at Drexel University. P. yoelii ATV^r and ELQ-300^r clones were obtained from VAPORHCS.

[3] = test system: P. falciparum D6, Dd2, Tm90-C2B, Dd2-D1^I22L, D10yDHODH; experiment: microbe, parasite or virus in culture; assay type: cell-based, Plasmodium falciparum; settings: read-out: in vitro IC50 vs P. falciparum
Procedure: as §1

[4] = test system: P. yoelii wild type, ATV^r and ELQ-300^r clones; experiment: 4-day suppression model with ATV- and ELQ-300-resistant clones; assay type: in vivo, P. yoelii in CF1 mice; settings: (95% CI)
Text: Animals were housed at the VAPORHCS in Thoren Maxi-Miser microisolator cages (78 sq. in. floor space) with a maximum density of five females or four males per cage. Cages were maintained on a 12-h light/dark cycle and provided with autoclaved nesting materials (nestlets) for environmental enrichment. All mice had ad libitum access to food and water. Four- to five-week-old female and male outbred CF1 mice (Charles River Laboratories, Raleigh, NC, USA) were randomly assigned to treatment and control groups using a simple randomization procedure (e.g., computer-generated random numbers) to ensure balanced distribution of baseline body weights and starting parasitemia levels across all cohorts. Groups of four mice (n = 4, mean body weight of each group was ~30 g) were infected intravenously with 3.5 × 10^4 P. yoelii (Kenya strain, MRA-428) from a donor animal. Drug administration commenced the day after the animals were inoculated (Day 1). The test drug or the drug combination was dissolved in PEG-400 and administered by oral gavage once daily for 4 successive days in the 4-day suppression model, but only once on Day 1 in the single-dose cure model. Blood was collected via the tail vein with the aid of a syringe needle on Day 5 and then at weekly intervals through Day 28. Blood films were Giemsa-stained and examined microscopically to determine the level of parasitemia. All mice were observed daily to assess clinical signs. Animals with observable parasitemia following the experiments were euthanized; animals cleared of parasitemia from their bloodstream were observed daily with assessment of parasitemia performed weekly until Day 28, at which point, the animal(s) were scored as cured of the infection and then humanely euthanized. All treated mice with a negative smear on Day 28 were considered cured (100% protection).
as §1

[5] = cytotoxicity against HepG2 cells; assay type: cell-based; settings: human, HepG2 cells; read-out: inhibition IC50 vs HepG2
Procedure: Cytotoxicity was evaluated in human HepG2 liver cells, using an MTT assay. Briefly, HepG2 cells were cultured in complete Dulbecco’s modified Eagle’s medium (DMEM; Gibco-Invitrogen, No. 11995-065) prepared by supplementing DMEM with 10% heat inactivated FBS (Gibco-Invitrogen, No. 16000-036), 100 units/mL penicillin, and 100 µg/mL streptomycin. Cell viability was assessed using trypan blue. Ninety-six-well plates were seeded with 2 × 10^4 cells per well and incubated at 37 °C overnight in a humidified 5% CO2 atmosphere. Test compound plates were prepared with an INTEGRA assist plus station and 96-well plates containing 11 duplicate 2-fold serial dilutions of test compound suspended in DMSO. The diluted test compound was then added to the corresponding well preseeded with HepG2 cells. […] After incubation, 20 µL of a 0.1 mg/mL solution of resazurin diluted in PBS was added to each well, and all plates were subsequently incubated for 3–4 h in an incubator. Absorbance was determined with the Molecular Devices SpectraMax plate reader. Three independent experiments, each in duplicate, were performed, and the IC50 values were determined using GraphPad Prism software (Version 10) using the non-linear regression equation (sigmoidal dose-response, variable slope).

[6] = Plasmodium falciparum, DD2, Supplementary Table 4, Dd2
[7] = Plasmodium falciparum, DD2, Supplementary Table 4, Dd2-A131S-140I-259L-264L
[8] = Plasmodium falciparum, DD2, Supplementary Table 4, Dd2-B131S-140I-259L-264L
[9] = Plasmodium falciparum, DD2, Supplementary Table 4, Dd2-D0119L-131S-259L (pfdhodh mutation)
[10] = Plasmodium falciparum, DD2, Supplementary Table 4, Dd2-D1131S-140I-259L (pfdhodh mutation)
[11] = Dd2-A^131S-140I-259L-264L, read-out: inhibition IC50 vs P. falciparum
[12] = Dd2-A^131S-140I-259L, read-out: inhibition IC50 vs P. falciparum
[13] = Dd2-B^87V-131S-140I-259L, read-out: inhibition IC50 vs P. falciparum
[14] = Dd2-B^131S-140I-259L-264L, read-out: inhibition IC50 vs P. falciparum
[15] = Dd2-C0^119L-131S-259L (pfdhodh mutation), read-out: inhibition IC50 vs P. falciparum
[16] = Dd2-C1^131S-140I-259L (pfdhodh mutation), read-out: inhibition IC50 vs P. falciparum
[17] = Dd2, read-out: inhibition IC50 vs P. falciparum
[18] = Dd2^131S-259L, read-out: inhibition IC50 vs P. falciparum
[19] = Dd2^131S, read-out: inhibition IC50 vs P. falciparum
[20] = Dd2^259L, read-out: inhibition IC50 vs P. falciparum

Compound | IC50 [2, 6] | IC50 [2, 7] | IC50 [2, 8] | IC50 [2, 9] | IC50 [2, 10] | IC50 [2, 11] | IC50 [2, 12] | IC50 [2, 13] | IC50 [2, 14] | IC50 [2, 15] | IC50 [2, 16] | IC50 [2, 17] | IC50 [2, 18] | IC50 [2, 19] | IC50 [2, 20] | also measured
C[C@H]1[C@@H](O)O[C@@H]2O[C@@]3(C)CC[C@H]4[C@H](C)CC[C@@H]1[C@@]24OO3 [DHA, dihydroartemisinin] | 1.7 ± 0.14 nM | 2.3 ± 0.25 nM | 2.3 ± 0.18 nM | 2.2 ± 0.18 nM | 2.4 ± 0.2 nM | – | – | – | – | – | – | – | – | – | – | IC50 ([1]; read-out: GRRA50, SP045 (K13 V555A, ART-S)): 7.7 nM; IC50 ([1]; read-out: GRRA50, SP060 (K13 R561H, ART-R)): 25 nM
Cc1cc(Nc2ccc(S(F)(F)(F)(F)F)cc2)n2nc(C(C)(F)F)nc2n1 [DSM265] | – | – | – | – | – | – | – | – | – | – | – | – | – | – | – | IC50 ([2]; Plasmodium falciparum, DD2, read-out: inhibition IC50 vs P. falciparum, Dd2): 3.2 ± 0.3 nM; IC50 ([2]; Plasmodium falciparum, DD2, read-out: inhibition IC50 vs P. falciparum, Dd2-A^131S-140I-259L): 3.2 ± 0.52 nM; IC50 ([2]; Plasmodium falciparum, DD2, read-out: inhibition IC50 vs P. falciparum, Dd2-A^131S-140I-259L-264L): 1.2 ± 0.075 nM; IC50 ([2]; Plasmodium falciparum, DD2, read-out: inhibition IC50 vs P. falciparum, Dd2-B^87V-131S-140I-259L): 3.5 ± 0.37 nM; IC50 ([2]; Plasmodium falciparum, DD2, read-out: inhibition IC50 vs P. falciparum, Dd2-B^131S-140I-259L-264L): 2.8 ± 0.3 nM; IC50 ([2]; Plasmodium falciparum, DD2, read-out: inhibition IC50 vs P. falciparum, Dd2-C0^119L-131S-259L (pfdhodh mutation)): 795 ± 235 nM; IC50 ([2]; Plasmodium falciparum, DD2, read-out: inhibition IC50 vs P. falciparum, Dd2-C1^131S-140I-259L (pfdhodh mutation)): 563 ± 203 nM; IC50 ([2]; Plasmodium falciparum, DD2, read-out: inhibition IC50 vs P. falciparum, Dd2^131S): 1.9 ± 0.22 nM; IC50 ([2]; Plasmodium falciparum, DD2, read-out: inhibition IC50 vs P. falciparum, Dd2^131S-259L): 2.8 ± 1.2 nM; IC50 ([2]; Plasmodium falciparum, DD2, read-out: inhibition IC50 vs P. falciparum, Dd2^259L): 3.3 ± 1 nM
COc1cc2[nH]c(C)c(-c3ccc(Oc4ccc(OC(F)(F)F)cc4)cc3)c(=O)c2cc1Cl [ELQ-300] | – | – | – | – | – | 35 ± 3.2 nM | 52 ± 5.5 nM | 67 ± 4.6 nM | 25 ± 2.7 nM | 221 ± 50 nM | 225 ± 73 nM | 38 ± 5 nM | 26 ± 5.2 nM | 20 ± 5.8 nM | 23 ± 4.3 nM | IC50 ([3]; D6): 3.5 ± 0.23 nM; IC50 ([3]; D10yDHODH): > 2500 nM; IC50 ([3]; Dd2-D1^I22L (ELQ-300-resistant)): 245 ± 27 nM; IC50 ([3]; Dd2): 3.1 ± 0.15 nM; IC50 ([3]; Tm90-C2B (cyt b Y268S, ATV-resistant)): 1.3 ± 0.084 nM; ED50 ([4]; P. yoelii ATVrY268S): 0.040 (0.036–0.044) mg/kg/day; ED50 ([4]; P. yoelii ELQ-300rI22L): 1.27 (0.97–1.67) mg/kg/day; ED50 ([4]; P. yoelii wild type): 0.031 (0.029–0.033) mg/kg/day
CCCCN(CCCC)CC(O)c1cc(Cl)cc2c1-c1ccc(Cl)cc1/C2=C/c1ccc(Cl)cc1 (stereo not drawn) [LUM, lumefantrine] | 1.2 ± 0.098 nM | 1.7 ± 0.086 nM | 1.7 ± 0.36 nM | 1.5 ± 0.11 nM | 2.4 ± 0.11 nM | – | – | – | – | – | – | – | – | – | – | –
CO/C(=C/C(N)=O)[C@H](C)[C@H](/C=C/c1csc(-c2csc([C@@H](C)/C=C/C=C/C(C)C)n2)n1)OC [MYX, myxothiazol] | – | – | – | – | – | 16 ± 4.1 nM | 192 ± 11 nM | 373 ± 11 nM | 34 ± 3.3 nM | 1540 ± 110 nM | 723 ± 141 nM | 24 ± 3.4 nM | 975 ± 139 nM | 383 ± 38 nM | 64 ± 13 nM | –
Clc1ccc2c(N3CCN(CCCN4CCN(c5ccnc6cc(Cl)ccc56)CC4)CC3)ccnc2c1 [PIP, piperaquine] | 7.4 ± 0.57 nM | 9.9 ± 0.65 nM | 12 ± 2.3 nM | 11 ± 1.2 nM | 9.1 ± 1.7 nM | – | – | – | – | – | – | – | – | – | – | –
OC(c1cc(C(F)(F)F)nc2c(C(F)(F)F)cccc12)C1CCCCN1 (stereo not drawn) [mefloquine] | – | – | – | – | – | – | – | – | – | – | – | – | – | – | – | IC50 at 24 h [5]: 4940 nM
ELQ-400 | – | – | – | – | – | 80 ± 15 nM | 133 ± 17 nM | 177 ± 3.1 nM | 126 ± 32 nM | 255 ± 62 nM | 501 ± 101 nM | 4 ± 0.45 nM | 28 ± 13 nM | 4.2 ± 0.41 nM | 24 ± 6.7 nM | –
